In ChEMBL document CHEMBL3885861, “Open TG-GATES”:

Organism: Rattus norvegicus
Experiment: Open TG-GATES - Regimen: Single
Format: toxicity, organism-based, Sprague-Dawley
Set-up: regimen Single, gender Male, age 6 weeks
Settings: in vivo, po, 30 mg/kg, route gavage, dose level Low; for APTT / Bas / Eos / Fbg / Hb / Ht / Lym / MCH / MCHC / MCV / Mono / Neu / PT / Plat / RBC / Ret / WBC: tissue Blood; for KIDNEY_L / KIDNEY_R / KIDNEY_TOTAL: tissue Kidney; for LIVER: tissue Liver; for A/G / ALP / ALT / AST / BUN / CRE / Ca / Cl / DBIL / GLC / IP / K / LDH / Na / PL / RALB / TBIL / TC / TG / TP / gamma-GTP: tissue Plasma

Cc1cccc(Nc2ccccc2C(=O)O)c1C [MEFENAMIC ACID]
TERMINAL_BW (3 h): 215.4 g | APTT (3 h): 19 s | Bas (3 h): 0% | Eos (3 h): 1% | Fbg (3 h): 214.4 mg/dL | Hb (3 h): 13.3 g/dL | Ht (3 h): 37.7% | Lym (3 h): 79.6% | MCH (3 h): 22 pg | MCHC (3 h): 35.3% | MCV (3 h): 62.1 fL | Mono (3 h): 2.2% | Neu (3 h): 15.4% | PT (3 h): 12.4 s | Plat (3 h): 118.3 x10_4/uL | RBC (3 h): 607.2 x10_4/ul | Ret (3 h): 7.3% | WBC (3 h): 91.2 x10_2/uL | KIDNEY_L (3 h): 1 g | KIDNEY_R (3 h): 1 g | KIDNEY_TOTAL (3 h): 2 g | LIVER (3 h): 9.5 g | A/G (3 h): 1.6 | ALP (3 h): 842.4 IU/L | ALT (3 h): 36.2 IU/L | AST (3 h): 68.8 IU/L | BUN (3 h): 11 mg/dL | CRE (3 h): 0.4 mg/dL | Ca (3 h): 10.7 mg/dL | Cl (3 h): 103.6 meq/L | DBIL (3 h): 0.074 mg/dL | GLC (3 h): 189.8 mg/dL | IP (3 h): 8.8 mg/dL | K (3 h): 4.1 meq/L | LDH (3 h): 197.4 IU/L | Na (3 h): 141.2 meq/L | PL (3 h): 134.8 mg/dL | RALB (3 h): 3.4 g/dL | TBIL (3 h): 0.1 mg/dL | TC (3 h): 73.4 mg/dL | TG (3 h): 49.2 mg/dL | TP (3 h): 5.4 g/dL | gamma-GTP (3 h): 1.2 IU/L | TERMINAL_BW (6 h): 213 g | APTT (6 h): 18.5 s | Bas (6 h): 0% | Eos (6 h): 1% | Fbg (6 h): 226.6 mg/dL | Hb (6 h): 13.4 g/dL | Ht (6 h): 37.4% | Lym (6 h): 76.8% | MCH (6 h): 22.3 pg | MCHC (6 h): 35.8% | MCV (6 h): 62.5 fL | Mono (6 h): 2.6% | Neu (6 h): 18.2% | PT (6 h): 12.6 s | Plat (6 h): 118.7 x10_4/uL | RBC (6 h): 599 x10_4/ul | Ret (6 h): 7.5% | WBC (6 h): 86.8 x10_2/uL | KIDNEY_L (6 h): 1 g | KIDNEY_R (6 h): 1 g | KIDNEY_TOTAL (6 h): 2 g | LIVER (6 h): 9.5 g | A/G (6 h): 1.7 | ALP (6 h): 972 IU/L | ALT (6 h): 37.4 IU/L | AST (6 h): 65.2 IU/L | BUN (6 h): 9.8 mg/dL | CRE (6 h): 0.3 mg/dL | Ca (6 h): 10.5 mg/dL | Cl (6 h): 102.6 meq/L | DBIL (6 h): 0.07 mg/dL | GLC (6 h): 191.2 mg/dL | IP (6 h): 8.7 mg/dL | K (6 h): 4 meq/L | LDH (6 h): 168.4 IU/L | Na (6 h): 140.2 meq/L | PL (6 h): 136.6 mg/dL | RALB (6 h): 3.4 g/dL | TBIL (6 h): 0.1 mg/dL | TC (6 h): 77.8 mg/dL | TG (6 h): 58 mg/dL | TP (6 h): 5.4 g/dL | gamma-GTP (6 h): 1 IU/L
